These results are taken from patent US20260062422A1 (Halda Therapeutics OpCo, Inc., priority 2022, published 2026).

In this assay the test system is T47D cells. Nature of the assay: Cellular growth inhibition assay for T47D cells, CellTiter-Glo. The note with it: 72 hours treatment, CellTiter-Glo 2.0 cell viability. Format: cell-based, human. The method, then: T47D cells were purchased from American Type Cell Culture (ATCC Cat #HTB-133) and then seeded on poly-D-lysine coated, black clear-bottom 384-well plates at 3000/well in 25 μL Dulbecco's Modified Eagle Medium (DMEM) supplemented with 10% w/w Fetal bovine serum (FBS), 0.2 units/mL recombinant human insulin (Gibco Cat #12585014), and 1% w/w Pen-Strep. Pen-Strep is a commercially available mixture of penicillin G and streptomycin, which is used in mammalian cell culture media to prevent bacterial contamination. Dulbecco's Modified Eagle Medium (DMEM) supplemented with 10% w/w fetal bovine serum (FBS), 0.2 units/mL recombinant human insulin, and 1% w/w Pen-Strep is herein referred to as Treatment Medium. Following seeding of cells in the plates, the plates were spun at 300×g for 30 seconds, then equilibrated to room temperature for 30 minutes, and then deposited in a humidified tissue culture incubator maintained at 37° C. with 5% CO2.
At 24 hours after seeding of the cells, dilutions of test compound were prepared in DMSO and dissolved in Treatment Medium, to achieve a final DMSO concentration of 0.5% w/w, thereby providing the Test Compound Solution. A 25 μL aliquot of the Test Compound Solution was added to cells in the well plates. An equal volume of a solution containing DMSO and Treatment Medium was used as a negative control. Following treatment of cells with Test Compound Solution or said equal volume of a solution containing DMSO and Treatment Medium, the plates were spun at 300×g for 30 seconds, and then left in an incubator for 72 hours.
At the end of the treatment duration, cell viability was quantified with CellTiter-Glo 2.0 reagent (Promega Cat #G9243). For this purpose, plates were equilibrated to room temperature for 30 minutes, and then 25 μL of CellTiter-Glo 2.0 reagent was added to cells in the plate wells. Plates were then agitated on a shaker for two minutes at 500 rpm and subsequently incubated at room temperature for 10 minutes. Following incubation, the plates were spun at 3000×g for 30 seconds, then sealed with an optical adhesive cover, and luminescence readings were measured with an EnVision Plate Reader (Perkin Elmer).
Data was normalized using zero luminescence for baseline. A four-parameter non-linear regression curve fit was applied to dose-response data in GraphPad Prism data analysis software to determine the half-maximal growth inhibitory concentration (GI50) for each test compound.

For orientation: GI50 means the concentration at which growth is held to half of that of the control.

Each structure is given as a SMILES string. Where only a bound is given, the exact number is not on record here.

Take `Cc1sc2c(c1C)C(c1ccc([C@@H]3C[C@H]3C3CC4(CCN(c5cnc(C(=O)N[C@H]6C(C)(C)[C@H](Oc7ccc(C#N)c(Cl)c7)C6(C)C)cn5)CC4)C3)cc1)=N[C@@H](Cc1ncco1)c1nnc(C)n1-2` [Compound I-518]: where the note is “Homo sapiens, T47D, 72 h”, the GI50 is > 3 µM.

As to `Cc1sc2c(c1C)C(c1ccc([C@@H]3C[C@H]3C3CC4(CCN(c5cnc(C(=O)N[C@H]6C(C)(C)[C@H](Oc7ccc(C#N)c(Cl)c7)C6(C)C)cn5)CC4)C3)cc1)=N[C@@H](Cc1ncco1)c1nnc(C)n1-2` [Compound I-519], the GI50 was > 3 µM. With `Cc1sc2c(c1C)C(c1ccc(CC3CC4(CCN(c5cnc(C(=O)N[C@H]6C(C)(C)[C@H](Oc7ccc(C#N)c(Cl)c7)C6(C)C)cn5)CC4)C3)cc1)=NC1(CC1)c1nnc(C)n1-2` [Compound I-520], the GI50 (Homo sapiens, T47D, 72 h) is < 0.5 µM. Same read-out and setting: the same measure for `Cc1sc2c(c1C)C(c1ccc(OC3CC4(C3)CC3(CCN(c5cnc(C(=O)N[C@H]6C(C)(C)[C@H](Oc7ccc(C#N)c(Cl)c7)C6(C)C)cn5)CC3)C4)cc1)=NC1(CC1)c1nnc(C)n1-2` [Compound I-521]: > 3 µM. Same read-out and setting: the result for `Cc1sc2c(c1C)C(c1ccc(CC3CC4(CCN(c5ccc(C(=O)N[C@H]6C(C)(C)[C@H](Oc7ccc(C#N)c(Cl)c7)C6(C)C)nc5)CC4)C3)cc1)=NC1(CC1)c1nnc(C)n1-2` [Compound I-522] reads 1.5 to 3 µM.

For `Cc1sc2c(c1C)C(c1ccc(N3CC(CC4CCN(c5ccc(C(=O)N[C@H]6C(C)(C)[C@H](Oc7ccc(C#N)c(Cl)c7)C6(C)C)cn5)CC4)C3)cc1)=NC1(CC1)c1nnc(C)n1-2` [Compound I-523], the GI50 (Homo sapiens, T47D, 72 h) was 1.5 to 3 µM. With `Cc1sc2c(c1C)C(c1ccc(N3CC(CC4CCN(c5cnc(C(=O)N[C@H]6C(C)(C)[C@H](Oc7ccc(C#N)c(Cl)c7)C6(C)C)cn5)CC4)C3)cc1)=NC1(CC1)c1nnc(C)n1-2` [Compound I-526], the concentration for 50% growth inhibition (GI50) (Homo sapiens, T47D, 72 h) is > 3 µM. On to `Cc1sc2c(c1C)C(c1ccc(N3CC(CC4CN(c5cnc(C(=O)N[C@H]6C(C)(C)[C@H](Oc7ccc(C#N)c(Cl)c7)C6(C)C)cn5)C4)C3)cc1)=NC1(CC1)c1nnc(C)n1-2` [Compound I-527], for which, where the note is “Homo sapiens, T47D, 72 h”, the GI50 was > 3 µM. Take `Cc1sc2c(c1C)C(c1ccc(N3CC(C4CCN(c5cnc(C(=O)N[C@H]6C(C)(C)[C@H](Oc7ccc(C#N)c(Cl)c7)C6(C)C)cn5)CC4)C3)cc1)=NC1(CC1)c1nnc(C)n1-2` [Compound I-528]: the GI50 (Homo sapiens, T47D, 72 h) is > 3 µM.

In the case of `Cc1sc2c(c1C)C(c1ccc(N3CC(CC4CCN(c5ccc(C(=O)N[C@H]6C(C)(C)[C@H](Oc7ccc(C#N)c(Cl)c7)C6(C)C)nc5)CC4)C3)cc1)=NC1(CC1)c1nnc(C)n1-2` [Compound I-529], for the setting “Homo sapiens, T47D, 72 h”, the GI50 is > 3 µM. For the compound `Cc1sc2c(c1C)C(c1ccc(OC3CC4(C3)CC3(CCN(c5ccc(C(=O)N[C@H]6C(C)(C)[C@H](Oc7ccc(C#N)c(Cl)c7)C6(C)C)nc5)CC3)C4)cc1)=NC1(CC1)c1nnc(C)n1-2` [Compound I-530], the concentration for 50% growth inhibition (GI50) (Homo sapiens, T47D, 72 h) is > 3 µM. As to `Cc1sc2c(c1C)C(c1ccc(N3CC(CC4CN(c5ccc(C(=O)N[C@H]6C(C)(C)[C@H](Oc7ccc(C#N)c(Cl)c7)C6(C)C)nc5)C4)C3)cc1)=NC1(CC1)c1nnc(C)n1-2` [Compound I-531], the GI50 (Homo sapiens, T47D, 72 h) was > 3 µM. Same read-out and setting: the result for `Cc1sc2c(c1C)C(c1ccc(N3CC(CC4CN(c5ccc(C(=O)N[C@H]6C(C)(C)[C@H](Oc7ccc(C#N)c(Cl)c7)C6(C)C)cn5)C4)C3)cc1)=NC1(CC1)c1nnc(C)n1-2` [Compound I-532] reads > 3 µM; that for `Cc1sc2c(c1C)C(c1ccc(N3CC(C4CCN(c5ccc(C(=O)N[C@H]6C(C)(C)[C@H](Oc7ccc(C#N)c(Cl)c7)C6(C)C)nc5)CC4)C3)cc1)=NC1(CC1)c1nnc(C)n1-2` [Compound I-533], 1.5 to 3 µM.

Turning to `Cc1sc2c(c1C)C(c1ccc(N3CC(C4CCN(c5ccc(C(=O)N[C@H]6C(C)(C)[C@H](Oc7ccc(C#N)c(Cl)c7)C6(C)C)cn5)CC4)C3)cc1)=NC1(CC1)c1nnc(C)n1-2` [Compound I-534], the GI50 (Homo sapiens, T47D, 72 h) is > 3 µM.

On to `Cc1sc2c(c1C)C(c1ccc(C3CC3C3CC4(CCN(c5cnc(C(=O)N[C@H]6C(C)(C)[C@H](Oc7ccc(C#N)c(Cl)c7)C6(C)C)cn5)CC4)C3)cc1)=N[C@@H](C)c1nnc(C)n1-2` (stereo partly drawn) [Compound I-535], for which the GI50 (Homo sapiens, T47D, 72 h) is > 3 µM. `Cc1sc2c(c1C)C(c1ccc(C3CC3C3CC4(CCN(c5cnc(C(=O)N[C@H]6C(C)(C)[C@H](Oc7ccc(C#N)c(Cl)c7)C6(C)C)cn5)CC4)C3)cc1)=N[C@@H](C)c1nnc(C)n1-2` (stereo partly drawn) [Compound I-536]: the GI50 was > 3 µM.

Consider `Cc1sc2c(c1C)C(c1ccc(C3CC3C3CC4(CCN(c5ncc(C(=O)N[C@H]6C(C)(C)[C@H](Oc7ccc(C#N)c(Cl)c7)C6(C)C)cn5)CC4)C3)cc1)=N[C@@H](C)c1nnc(C)n1-2` (stereo partly drawn) [Compound I-537], for which the GI50 (Homo sapiens, T47D, 72 h) is > 3 µM. In the case of `Cc1sc2c(c1C)C(c1ccc(C3CC3C3CC4(CCN(c5cnc(C(=O)N[C@H]6C(C)(C)[C@H](Oc7ccc(C#N)c(Cl)c7)C6(C)C)cn5)CC4)C3)cc1)=NC(Cc1ncco1)c1nnc(C)n1-2` (stereo partly drawn) [Compound I-538], the concentration for 50% growth inhibition (GI50) was > 3 µM.

With `Cc1sc2c(c1C)C(c1ccc(C3CC3C3CC4(CCN(c5cnc(C(=O)N[C@H]6C(C)(C)[C@H](Oc7ccc(C#N)c(Cl)c7)C6(C)C)cn5)CC4)C3)cc1)=NC(Cc1ncco1)c1nnc(C)n1-2` (stereo partly drawn) [Compound I-539], the GI50 was > 3 µM. Still for that read-out and setting: the result for `Cc1sc2c(c1C)C(c1ccc(C3CC3C3CC4(CCN(c5cnc(C(=O)N[C@H]6C(C)(C)[C@H](Oc7ccc(C#N)c(Cl)c7)C6(C)C)cn5)CC4)C3)cc1)=NC(Cc1ncco1)c1nnc(C)n1-2` (stereo partly drawn) [Compound I-540] reads < 0.5 µM; that for `Cc1sc2c(c1C)C(c1ccc(C3CC3C3CC4(CCN(c5cnc(C(=O)N[C@H]6C(C)(C)[C@H](Oc7ccc(C#N)c(Cl)c7)C6(C)C)cn5)CC4)C3)cc1)=NC(Cc1ncco1)c1nnc(C)n1-2` (stereo partly drawn) [Compound I-541], < 0.5 µM. For `Cc1sc2c(c1C)C(c1ccc(OC3(C)CC4(CCN(c5ncc(C(=O)N[C@H]6C(C)(C)[C@H](Oc7ccc(C#N)c(Cl)c7)C6(C)C)cn5)CC4)C3)cc1)=N[C@@H](Cc1ncco1)c1nnc(C)n1-2` [Compound I-542], the 50% growth inhibitory concentration (GI50) (Homo sapiens, T47D, 72 h) is > 3 µM. In the case of `Cc1sc2c(c1C)C(c1ccc(N3CC(C4CCC(Cc5ncc(C(=O)N[C@H]6C(C)(C)[C@H](Oc7ccc(C#N)c(Cl)c7)C6(C)C)cn5)CC4)C3)cc1)=N[C@@H](Cc1ncco1)c1nnc(C)n1-2` (stereo partly drawn) [Compound I-543], the GI50 is > 3 µM. The same measure, in the same setting: the same measure for `Cc1sc2c(c1C)C(c1ccc(N3CC(C4CCC(Cc5ncc(C(=O)N[C@H]6C(C)(C)[C@H](Oc7ccc(C#N)c(Cl)c7)C6(C)C)cn5)CC4)C3)cc1)=N[C@@H](Cc1ncco1)c1nnc(C)n1-2` (stereo partly drawn) [Compound I-544]: 0.5 to 1.5 µM. The compound `Cc1sc2c(c1C)C(c1ccc(ON3CC4(C3)CC3(CCN(c5cnc(C(=O)N[C@H]6C(C)(C)[C@H](Oc7ccc(C#N)c(Cl)c7)C6(C)C)cn5)CC3)C4)cc1)=N[C@@H](Cc1ncco1)c1nnc(C)n1-2` [Compound I-545] displayed a GI50 (Homo sapiens, T47D, 72 h) of 0.5 to 1.5 µM. The same measure, in the same setting: the result for `Cc1sc2c(c1C)C(c1ccc(OC3CC4(C3)CC3(CCN(c5ccc(C(=O)N[C@H]6C(C)(C)[C@H](Oc7ccc(C#N)c(Cl)c7)C6(C)C)nc5)CC3)C4)cc1)=N[C@@H](Cc1ncco1)c1nnc(C)n1-2` [Compound I-546] reads > 3 µM. On the same count and under the same terms, the same measure for `Cc1sc2c(c1C)C(c1ccc(OC3CC4(C3)CC3(CCN(c5ccc(C(=O)N[C@H]6C(C)(C)[C@H](Oc7ccc(C#N)c(Cl)c7)C6(C)C)nc5)CC3)C4)cc1)=N[C@@H](C)c1nnc(C)n1-2` [Compound I-549]: > 3 µM; for `Cc1sc2c(c1C)C(c1ccc(N3CC(C4CCN(c5ccc(C(=O)N[C@H]6C(C)(C)[C@H](Oc7ccc(C#N)c(Cl)c7)C6(C)C)cn5)CC4)C3)cc1)=N[C@@H](C)c1nnc(C)n1-2` [Compound I-551]: < 0.5 µM. The same measure, in the same setting: the result for `Cc1sc2c(c1C)C(c1ccc(N3CC(C4CCN(c5ccc(C(=O)N[C@H]6C(C)(C)[C@H](Oc7ccc(C#N)c(Cl)c7)C6(C)C)nc5)CC4)C3)cc1)=N[C@@H](C)c1nnc(C)n1-2` [Compound I-552] reads 1.5 to 3 µM. `Cc1sc2c(c1C)C(c1ccc(CC3CC4(CCN(c5ccc(C(=O)N[C@H]6C(C)(C)[C@H](Oc7ccc(C#N)c(Cl)c7)C6(C)C)nc5)CC4)C3)cc1)=N[C@@H](Cc1ncco1)c1nnc(C)n1-2` [Compound I-553]: the GI50 (Homo sapiens, T47D, 72 h) is < 0.5 µM. As to `Cc1sc2c(c1C)C(c1ccc(CC3CCN(c4ncc(C(=O)N[C@H]5C(C)(C)[C@H](Oc6ccc(C#N)c(Cl)c6)C5(C)C)cn4)CC3)cc1)=N[C@@H](Cc1ncco1)c1nnc(C)n1-2` [Compound I-554], the GI50 (Homo sapiens, T47D, 72 h) is < 0.5 µM. For `Cc1sc2c(c1C)C(c1ccc(C3CC3C3CC4(CCN(c5ncc(C(=O)N[C@H]6C(C)(C)[C@H](Oc7ccc(C#N)c(Cl)c7)C6(C)C)cn5)CC4)C3)cc1)=N[C@@H](C)c1nnc(C)n1-2` (stereo partly drawn) [Compound I-556], the GI50 was > 3 µM.
